Experimental data taken from PMC5282848, “Ancient coexistence of norepinephrine, tyramine, and octopamine signaling in bilaterians” (BMC Biology, 2017).
Read-outs that look alike come from different tables or passages of the source. Each block holds one compound with its values, some of them ahead of it.

Legend:
Test in all cases: Ca2+ mobilization, GFP-apoaequorin luminescence in CHO-K1 with Gα-16
[1] = target: T1, P. dumerilii Octopamine α (Platynereis dumerilii, UniProt A0A1J0F445); format: cell-based
T1 construct: full-length in pcDNA3.1(+), expressed in CHO-K1 with Gα-16 and GFP-apoaequorin
T1 sequence (A0A1J0F445 1-603): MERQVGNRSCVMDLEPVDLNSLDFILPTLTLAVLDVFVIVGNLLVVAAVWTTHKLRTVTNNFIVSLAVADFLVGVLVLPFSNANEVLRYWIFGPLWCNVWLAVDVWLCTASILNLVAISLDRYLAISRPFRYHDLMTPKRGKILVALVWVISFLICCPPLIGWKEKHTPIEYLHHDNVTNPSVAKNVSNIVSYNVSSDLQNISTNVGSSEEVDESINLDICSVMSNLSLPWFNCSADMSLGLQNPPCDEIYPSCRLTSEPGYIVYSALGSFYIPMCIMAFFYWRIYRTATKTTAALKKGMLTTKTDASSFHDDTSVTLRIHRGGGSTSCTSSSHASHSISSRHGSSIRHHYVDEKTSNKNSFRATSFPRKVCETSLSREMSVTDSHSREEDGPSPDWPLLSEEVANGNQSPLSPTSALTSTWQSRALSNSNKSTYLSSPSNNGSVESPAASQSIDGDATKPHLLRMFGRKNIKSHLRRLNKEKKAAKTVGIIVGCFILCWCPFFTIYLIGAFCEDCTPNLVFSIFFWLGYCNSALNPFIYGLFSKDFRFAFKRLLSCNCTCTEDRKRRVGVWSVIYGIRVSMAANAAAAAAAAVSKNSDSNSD
Excerpt: Ca2+ mobilization, GFP-apoaequorin luminescence in CHO-K1 with Gα-16 on P. dumerilii Octopamine α

[2] = test system: T2, S. kowalevskii Octopamine α; format: cell-based, Saccoglossus kowalevskii; details: agonist, HBSS, 1.8 mM Ca2+, 10 mM glucose
T2 construct: gene Octopamine alpha receptor; full-length in pcDNA3.1(+), expressed in CHO-K1 with Gα-16 and GFP-apoaequorin
Excerpt: Ca2+ mobilization, GFP-apoaequorin luminescence in CHO-K1 with Gα-16 on S. kowalevskii Octopamine α

P. dumerilii Tyramine-2 = target: T3, P. dumerilii Tyramine-2 (Platynereis dumerilii, UniProt A0A1J0F4P1); format: cell-based
T3 construct: full-length in pcDNA3.1(+), expressed in CHO-K1 with Gα-16 and GFP-apoaequorin
T3 sequence (A0A1J0F4P1 1-460): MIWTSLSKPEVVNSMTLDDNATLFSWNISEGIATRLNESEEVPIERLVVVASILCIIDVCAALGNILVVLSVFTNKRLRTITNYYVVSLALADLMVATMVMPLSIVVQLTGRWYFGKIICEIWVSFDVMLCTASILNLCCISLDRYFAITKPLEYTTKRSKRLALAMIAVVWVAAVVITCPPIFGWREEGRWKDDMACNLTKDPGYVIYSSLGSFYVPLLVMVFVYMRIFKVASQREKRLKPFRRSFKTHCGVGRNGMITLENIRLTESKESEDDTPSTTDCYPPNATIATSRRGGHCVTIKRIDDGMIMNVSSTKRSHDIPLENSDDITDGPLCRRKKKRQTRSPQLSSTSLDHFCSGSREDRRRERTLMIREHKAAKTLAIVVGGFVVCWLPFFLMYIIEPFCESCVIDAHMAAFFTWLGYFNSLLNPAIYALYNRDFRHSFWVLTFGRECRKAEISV
Excerpt: Ca2+ mobilization, GFP-apoaequorin luminescence in CHO-K1 with Gα-16 on P. dumerilii Tyramine-2

[3] = target: T4, S. kowalevskii Tyramine-2B (Saccoglossus kowalevskii, UniProt A0ABM0LZ08); format: cell-based
T4 construct: gene LOC102801068; full-length in pcDNA3.1(+), expressed in CHO-K1 with Gα-16 and GFP-apoaequorin
T4 sequence (A0ABM0LZ08 1-489): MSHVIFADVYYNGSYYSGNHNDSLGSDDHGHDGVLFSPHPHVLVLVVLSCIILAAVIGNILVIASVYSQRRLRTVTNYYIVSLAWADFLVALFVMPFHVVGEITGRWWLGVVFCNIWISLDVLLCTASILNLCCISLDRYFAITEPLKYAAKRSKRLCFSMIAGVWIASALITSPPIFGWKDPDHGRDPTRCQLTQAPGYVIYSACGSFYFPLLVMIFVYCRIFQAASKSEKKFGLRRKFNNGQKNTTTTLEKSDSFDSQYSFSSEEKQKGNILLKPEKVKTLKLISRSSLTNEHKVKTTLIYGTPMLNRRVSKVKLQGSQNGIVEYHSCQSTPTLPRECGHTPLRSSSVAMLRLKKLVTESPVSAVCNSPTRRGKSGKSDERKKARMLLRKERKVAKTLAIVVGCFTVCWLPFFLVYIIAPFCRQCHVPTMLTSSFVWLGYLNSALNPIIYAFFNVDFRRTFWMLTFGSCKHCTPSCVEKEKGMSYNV
Excerpt: Ca2+ mobilization, GFP-apoaequorin luminescence in CHO-K1 with Gα-16 on S. kowalevskii Tyramine-2B

[4] = target: T5, S. kowalevskii Tyramine-1 (Saccoglossus kowalevskii, UniProt A0ABM0H1U8); format: cell-based
T5 construct: gene LOC100368763; full-length in pcDNA3.1(+), expressed in CHO-K1 with Gα-16 and GFP-apoaequorin
T5 sequence (A0ABM0H1U8 1-430): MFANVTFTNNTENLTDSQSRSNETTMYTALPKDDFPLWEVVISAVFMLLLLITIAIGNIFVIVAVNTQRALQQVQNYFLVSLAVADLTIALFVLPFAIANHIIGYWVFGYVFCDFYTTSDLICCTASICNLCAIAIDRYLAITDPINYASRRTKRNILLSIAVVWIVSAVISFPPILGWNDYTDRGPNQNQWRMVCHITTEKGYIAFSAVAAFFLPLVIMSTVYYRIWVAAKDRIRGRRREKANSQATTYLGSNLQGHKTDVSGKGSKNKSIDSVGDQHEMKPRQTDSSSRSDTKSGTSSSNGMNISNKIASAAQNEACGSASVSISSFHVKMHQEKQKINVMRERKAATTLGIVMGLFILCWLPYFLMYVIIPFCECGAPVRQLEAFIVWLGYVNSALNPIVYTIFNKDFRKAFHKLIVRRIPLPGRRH
Excerpt: Ca2+ mobilization, GFP-apoaequorin luminescence in CHO-K1 with Gα-16 on S. kowalevskii Tyramine-1

[5] = target: T6, S. kowalevskii Tyramine-2A (Saccoglossus kowalevskii, UniProt A0ABM0GNT8); format: cell-based
T6 construct: gene LOC100366600; full-length in pcDNA3.1(+), expressed in CHO-K1 with Gα-16 and GFP-apoaequorin
T6 sequence (A0ABM0GNT8 1-458): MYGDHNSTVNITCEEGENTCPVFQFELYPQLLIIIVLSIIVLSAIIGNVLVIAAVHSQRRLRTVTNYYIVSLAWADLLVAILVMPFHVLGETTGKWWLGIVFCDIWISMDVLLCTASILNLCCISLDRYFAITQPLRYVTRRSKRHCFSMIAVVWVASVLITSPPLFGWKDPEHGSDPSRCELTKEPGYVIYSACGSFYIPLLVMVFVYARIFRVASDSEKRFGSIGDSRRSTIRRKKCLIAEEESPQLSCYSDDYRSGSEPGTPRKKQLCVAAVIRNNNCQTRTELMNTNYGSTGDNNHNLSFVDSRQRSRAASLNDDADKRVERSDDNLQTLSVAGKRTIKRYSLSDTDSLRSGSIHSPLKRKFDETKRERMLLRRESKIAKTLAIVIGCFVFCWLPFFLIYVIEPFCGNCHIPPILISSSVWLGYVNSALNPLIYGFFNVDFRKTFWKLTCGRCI
Excerpt: Ca2+ mobilization, GFP-apoaequorin luminescence in CHO-K1 with Gα-16 on S. kowalevskii Tyramine-2A

P. dumerilii Tyramine-1 = target: T7, P. dumerilii Tyramine-1 (Platynereis dumerilii, UniProt A0A0K0PUV5); format: cell-based
T7 construct: full-length in pcDNA3.1(+), expressed in CHO-K1 with Gα-16 and GFP-apoaequorin
T7 sequence (A0A0K0PUV5 1-428): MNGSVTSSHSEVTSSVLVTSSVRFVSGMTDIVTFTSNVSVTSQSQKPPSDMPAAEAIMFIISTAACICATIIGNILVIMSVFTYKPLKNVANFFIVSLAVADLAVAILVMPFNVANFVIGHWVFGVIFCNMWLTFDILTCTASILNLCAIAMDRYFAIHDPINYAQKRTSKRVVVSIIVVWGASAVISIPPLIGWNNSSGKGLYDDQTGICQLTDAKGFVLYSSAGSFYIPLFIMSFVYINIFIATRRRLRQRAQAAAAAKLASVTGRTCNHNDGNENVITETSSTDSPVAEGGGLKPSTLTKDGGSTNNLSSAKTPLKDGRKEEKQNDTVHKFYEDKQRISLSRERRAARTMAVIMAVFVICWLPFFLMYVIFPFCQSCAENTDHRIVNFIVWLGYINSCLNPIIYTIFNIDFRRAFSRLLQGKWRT
Excerpt: Ca2+ mobilization, GFP-apoaequorin luminescence in CHO-K1 with Gα-16 on P. dumerilii Tyramine-1

Structure (SMILES): Clc1cccc(Cl)c1NC1=NCCN1 [clonidine]
- EC50 ([1]; read-out: Clonidine): 140 nM
- EC50 ([2]; read-out: Clonidine): 160 nM

Structure (SMILES): NC[C@H](O)c1ccc(O)cc1 [octopamine]
- EC50 ([1]; read-out: Octopamine): 260 nM
- EC50 ([2]; read-out: Octopamine): 690 nM

- IC50 ([1]; read-out: Yohimbine): 9 nM
Structure (SMILES): COC(=O)[C@@H]1[C@H]2C[C@H]3c4[nH]c5ccccc5c4CCN3C[C@@H]2CC[C@@H]1O [yohimbine]

Structure (SMILES): NCCc1ccc(O)cc1 [tyramine]
- EC50 (P. dumerilii Tyramine-2): 7 nM
- EC50 [3]: 5.9 nM
- EC50 [4]: 86000 nM
- EC50 [5]: 1 nM
- EC50 (P. dumerilii Tyramine-1): 11 nM
